From patent US20230406859A1, “METHOTREXATE ANALOGS AND METHODS OF USE” (The United States of America, as represented by the …, priority 2020, published 2023)
Where two headings read alike, the source gives them in different places.

Experiments:
[1] = tested on: HBL1 cell line; assay: CellTiter-Glo cell viability (cytotox), HBL1 cell line, 72 hours; assay type: cell-based
Procedure: (§1) CellTiter-Glo viability assays: Five μL of cells (2500 cells) from the 12-well plate culture were plated into white 1536-well plates (Greiner, Monroe, NC, 789173-F) in 6 replicates. CellTiter-Glo Luminescent Cell Viability Assay (CTG) (Promega, G7572), 2.5 μL/well reagent was added with a BioRAPTR FRD (Beckman Coulter, Sykesville, MD), plates were incubated in the dark at ambient temperature for 10 min, and luminescence measured with a ViewLux 1430 Ultra HTS (Perkin Elmer, Waltham, MA).

[2] = tested on: MTX-resistant HBL1 cell line; assay type: cell-based
Procedure: as §1

[3] = target: T1, human DHFR-HiBiT fusion protein (Homo sapiens, UniProt P00374); assay: DHFR-HiBiT assay (high-throughput DHFR abundance) in HBL1 cells; assay type: cell-based; details: for Dmax: % change in untreated cellular DHFR level (control), negative = degradation, positive = stabilization, HBL1, 24 h, read-out: efficacy (%)
T1 construct: expressed in transfected cells; host or cells: HBL1 cells retrovirally infected with pBMN-Ires-Lyt-2 carrying DHFR-HiBiT
T1 sequence (P00374 with tags, fused parts or gaps): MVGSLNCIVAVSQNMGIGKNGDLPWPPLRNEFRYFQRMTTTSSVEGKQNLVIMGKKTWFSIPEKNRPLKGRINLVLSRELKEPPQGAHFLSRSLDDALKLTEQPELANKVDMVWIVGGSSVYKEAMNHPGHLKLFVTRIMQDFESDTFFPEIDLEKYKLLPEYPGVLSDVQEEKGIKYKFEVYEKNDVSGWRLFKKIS
From the text: The human DHFR-HiBiT construct was synthetized (Bio Basic) and cloned into the retroviral vector pBMN-Ires-Lyt-2 (provided by G. Nolan, Stanford University, Stanford, CA) which expresses the coding region of mouse CD8a (Lyt-2) using the restriction sites BamHI/XhoI. All constructs were sequenced to validate authenticity. Infected cells were positively selected based on murine CD8a expression using magnetic beads (Miltenyi Biotech).
Cell culture: Human embryonic kidney HEK293T cells were maintained in DMEM (Gibco) supplemented with 10% fetal bovine serum (Hyclone), 2 mmol/L 1-glutamine, HEPES (Gibco) and 100 U/mL penicillin/streptomycin (Invitrogen). The lymphoma cell line HBL1 were maintained in RPMI (Life Technology) supplemented with 5% fetal bovine serum (Hyclone), 2 mmol/L L-glutamine, HEPES (Gibco) and 100 U/mL penicillin/streptomycin (Invitrogen).
Transfection and retroviral infections: Transfections were performed using Lipofectamine 2000 (Invitrogen) according to the manufacturer's protocol. For retroviral infections, viruses were produced in HEK293T cells and used to infect HBL1 cell line. […] Supernatants containing the retrovirus were collected and filtered at 48- and 72-hours post-transfection. HBL1 cells were centrifuged and then resuspended with the retroviral supernatant with 8 μg/ml of polybrene. The cells were spin-infected twice on consecutive days at 2,500 rpm, at RT, for 90 minutes.
Lytic HiBiT Detection: Cells were plated in solid white 1536-well tissue culture plates (Greiner), at the concentration of 2000 cells/well. After treatment, an equal volume of Nano-Glo HiBiT Lytic Reagent (Promega) containing the substrate furimazine and Large BiT (LgBiT) was added to the cells according to the manufacturer's protocol. Cells were incubated for 10 min at room temperature, and luminescence was measured using a Perkin Elmer ViewLux microplate imager with 30 seconds of exposure time.

[4] = tested on: 293T cells; assay: CellTiter-Glo ATP levels in 293T cells; assay type: cell-based, human
Procedure: (§2) Cell Culture Methods: Cells (HBL1, immortalized fibroblasts from a healthy donor, or 293T) were seeded at the numbers indicated in a 12-well plate in 500 ul. […] Human embryonic kidney HEK293T cells and immortalized fibroblasts were maintained in DMEM (Gibco) supplemented with 10% fetal bovine serum (Hyclone), 2 mmol/L L-glutamine, Hepes (Gibco), and 100 U/mL penicillin/streptomycin (Invitrogen). The lymphoma cell line HBL1 was maintained in RPMI (Life Technology) supplemented with 5% fetal bovine serum (Hyclone), 2 mmol/L 1-glutamine, Hepes (Gibco), and 100 U/mL penicillin/streptomycin (Invitrogen). Cells were cultured in incubators maintained at 37° C., with 5% CO2 and 85% humidity.
as §1, with “Cell-Titer-Glo viability” for “CellTiter-Glo viability”

[5] = tested on: HBL1 cells; assay: CellTiter-Glo assay of cellular ATP levels in HBL1 cells (16 h); assay type: cell-based
Procedure: as §2
as §1, with “Cell-Titer-Glo viability” for “CellTiter-Glo viability”

[6] = tested on: fibroblasts; assay: CellTiter-Glo ATP levels in fibroblasts; assay type: cell-based
Procedure: as §2
as §1, with “Cell-Titer-Glo viability” for “CellTiter-Glo viability”

[7] = target: T2, thymidylate synthase (TS) (Homo sapiens, UniProt P04818); assay: Western blot of thymidylate synthase levels in fibroblasts; assay type: cell-based; details: 16 h
[8] = target: T3, DHFR (Homo sapiens, UniProt P00374); assay type: cell-based; details: HBL1 cells, Western blot
T3 construct: Western blot detection of DHFR levels after treatment of HBL1 cells for 16 h; endogenous in cells; host or cells: HBL1 lymphoma cell line
T3 sequence (P00374 1-187): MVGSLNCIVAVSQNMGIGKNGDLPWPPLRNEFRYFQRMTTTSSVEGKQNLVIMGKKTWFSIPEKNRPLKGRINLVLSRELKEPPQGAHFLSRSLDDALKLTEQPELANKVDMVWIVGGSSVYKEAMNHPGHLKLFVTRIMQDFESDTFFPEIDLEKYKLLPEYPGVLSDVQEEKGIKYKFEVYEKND
From the text: Human embryonic kidney HEK293T cells and immortalized fibroblasts were maintained in DMEM (Gibco) supplemented with 10% fetal bovine serum (Hyclone), 2 mmol/L L-glutamine, Hepes (Gibco), and 100 U/mL penicillin/streptomycin (Invitrogen). The lymphoma cell line HBL1 was maintained in RPMI (Life Technology) supplemented with 5% fetal bovine serum (Hyclone), 2 mmol/L 1-glutamine, Hepes (Gibco), and 100 U/mL penicillin/streptomycin (Invitrogen).
Western blotting: Cells at confluence from 12-well plate treatments were washed with PBS and lysed in 75 μL/well NP40 lysis buffer (Cell Signaling), subjected to agitation and centrifugation. Approximately 100 μg of total protein was used per analysis. […] Blots were first incubated with 1:2000 dilution of anti-human DHFR antibody (Abcam, ab124814, host rabbit) for 16 h at 4° C. with shaking, washed 3× with TBS-T and incubated with 1:2000 dilution of anti-human β-actin primary antibody (Cell Signaling, host mouse) for 1 h at ambient temperature with shaking. Blots were then washed 3× with TBS-T and incubated with 1:5000 HRP secondary antibody (Novex, anti-Rabbit IgG raised in Goat, 1 mg/ml) for 1 h at ambient temperature, then washed with 3×TBS-T and developed with Pierce ECL Dura reagent for 5 min. Immunoreactive bands were imaged on a ChemiDoc Imaging System (Bio-Rad) with 20 s chemiluminescence exposure. The molecular weight marker ladder was imaged with colorimetric auto-exposure, and both images merged.

[9] = target: T2, thymidylate synthase (TS); assay: Western blot of thymidylate synthase levels in 293T cells; assay type: cell-based; details: 16 h
[10] = target: T2, thymidylate synthase (TS); assay: Western blot of thymidylate synthase levels in HBL1 cells; assay type: cell-based; design: Western blot detection of folate-cofactor dependent enzyme levels after treatment of HBL1 cells; endogenous in cells; host or cells: HBL1 lymphoma cell line; details: 1 μM, 16 h
[11] = target: T3, DHFR; assay: Western blot detection of DHFR levels in 293T cells; assay type: cell-based; details: 16 h at 1 μM
Procedure: as §2
(§3) Western blotting: Cells at confluence from 12-well plate treatments were washed with PBS and lysed in 75 μL/well NP40 lysis buffer (Cell Signaling), subjected to agitation and centrifugation. Approximately 100 μg of total protein was used per analysis. Proteins were sized on a NuPAGE 12% Bis-Tris Gel, 1.0 mm×10 wells, proteins transferred to 0.2 μm nitrocellulose membrane for 60 min followed by blocking with 5% t milk in TBS-T for 1 h at ambient temperature with gentle shaking. […]

[12] = target: T3, DHFR; assay: Western blot detection of DHFR levels in fibroblasts; assay type: cell-based; details: 16 h at 1 μM
Procedure: as §2, §3

[13] = HBL1 cell line, CellTiter-Glo, unit inferred

T2 sequence (P04818 2-313 limits assumed): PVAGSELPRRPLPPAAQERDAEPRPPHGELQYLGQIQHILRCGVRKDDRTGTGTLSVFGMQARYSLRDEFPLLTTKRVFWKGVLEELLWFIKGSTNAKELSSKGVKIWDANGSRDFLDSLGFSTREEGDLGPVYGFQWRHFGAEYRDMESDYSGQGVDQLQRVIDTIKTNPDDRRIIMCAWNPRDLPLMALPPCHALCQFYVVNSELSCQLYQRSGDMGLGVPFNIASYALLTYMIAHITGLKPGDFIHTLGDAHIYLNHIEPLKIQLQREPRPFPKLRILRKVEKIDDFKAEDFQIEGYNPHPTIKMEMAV

SMILES | Dmax [3] [%] | effect on TS protein level [7] | effect on DHFR protein levels [8] | effect on TS protein level [9] | effect on TS protein level [10] | effect on DHFR protein levels [12] | IC50 [1, 13] [nM] | cellular toxicity in MTX-resistant HBL1 cell line [2] | other results
CN(Cc1cnc2nc(N)nc(N)c2n1)c1ccc(C(=O)NC(CC(F)C(=O)O)C(=O)O)cc1 (stereo not shown) [FMTX, 2-(4-(((2,4-diaminopteridin-6-yl)methyl)(methyl)amino)benzamido)-4-fluoropentanedioic acid, reference compound] | -115 |  |  |  |  |  | 1100 | greatly decreased | DC50 ([3]; HBL1 cells expressing DHFR-HiBiT, 24 h, degradation or stabilization potency, average of N = 2-5, read-out: Ave EC50): 280 nM
CN(Cc1cnc2nc(N)nc(N)c2n1)c1ccc(C(=O)N[C@@H](CCC(=O)O)C(=O)O)cc1 [MTX, (4-(((2,4-diaminopteridin-6-yl)methyl)(methyl)amino)benzoyl)-L-glutamic acid, reference compound] |  |  |  |  |  |  |  | greatly decreased | effect on ATP levels [4]: ATP-depleting properties; IC50 [1]: 57.1 nM; effect on cellular ATP levels (acute cellular toxicity) [5]: significantly depleted ATP levels; IC50 ([5]; HBL1, 16 h, read-out: IC50 for cellular ATP-depletion): ~200 nM; effect on ATP levels [6]: ATP-depleting properties

The next lines start with results.

Dmax [3] [%] | effect on TS protein level [7] | effect on DHFR protein levels [8] | effect on TS protein level [9] | effect on TS protein level [10] | effect on DHFR protein levels [12] | SMILES | IC50 [1, 13] [nM] | cellular toxicity in MTX-resistant HBL1 cell line [2] | other results
65 | low but detectable increases in TS | robust DHFR depletion | no significant change in TS levels | slight increase in TS |  | CN(Cc1cnc2nc(N)nc(N)c2n1)c1ccc(C(=O)N[C@@H](CCC(=O)NCCCCCCCCNc2cccc3c2C(=O)N(C2CCC(=O)NC2=O)C3=O)C(=O)O)cc1 (stereo partly drawn) [NCGC00685928, N2-(4-(((2,4-diaminopteridin-6-yl)methyl)(methyl)amino)benzoyl)-N5-(8-((2-(2,6-dioxopiperidin-3-yl)-1,3-dioxoisoindolin-4-yl)amino)octyl)-L-glutamine] | 23700 |  | 
 | low but detectable increases in TS | essentially inactive | no significant change in TS levels | slight increase in TS | significant degradation of DHFR | CN(Cc1cnc2nc(N)nc(N)c2n1)c1ccc(C(=O)N[C@@H](CCC(=O)NCCCNc2cccc3c2C(=O)N(C2CCC(=O)NC2=O)C3=O)C(=O)O)cc1 (stereo partly drawn) [NCGC00685938, N2-(4-(((2,4-diaminopteridin-6-yl)methyl)(methyl)amino)benzoyl)-N5-(3-((2-(2,6-dioxopiperidin-3-yl)-1,3-dioxoisoindolin-4-yl)amino)propyl)-L-glutamine] | 1660 |  | effect on DHFR protein levels [11]: essentially inactive
 |  | no alterations in DHFR protein levels |  |  | MTX-like stabilization of DHFR | Cc1ncsc1-c1ccc(CNC(=O)C2C[C@@H](O)CN2C(=O)C(NC(=O)COCCOCCNC(=O)CC[C@H](NC(=O)c2ccc(N(C)Cc3cnc4nc(N)nc(N)c4n3)cc2)C(=O)O)C(C)(C)C)cc1 (stereo partly drawn) [NCGC00685995, (17S)-17-(4-(((2,4-diaminopteridin-6-yl)methyl)(methyl)amino)benzamido)-3-((4R)-4-hydroxy-2-((4-(4-methylthiazol-5-yl)benzyl)carbamoyl)pyrrolidine-1-carbonyl)-2,2-dimethyl-5,14-dioxo-7,10-dioxa-4,13-diazaoctadecan-18-oic acid] | 20200 |  | effect on ATP levels ([4]; 293T cells, CellTiter-Glo): not observed; effect on ATP levels ([6]; fibroblasts, CellTiter-Glo): not observed
